Patent US20030068615A1, “Polypeptides that bind HIV gp120 and related nucleic acids, antibodies, compositions, and methods of use” (priority 1999, published 2003)
Where two headings read alike, the source gives them in different places.

What was measured:
[1] = tested on: HIV-1 virus strains (e.g. YU2); settings: cited from earlier work; for percentage compared to wild-type CCR5, 89.6 / percentage compared to wild-type CCR5, ADA / percentage compared to wild-type CCR5, DH123 / percentage compared to wild-type CCR5, JF-RL / percentage compared to wild-type CCR5, YU2: CCR5 alanine mutant, work of others; for percentage compared to wild-type CCR5, 89.6: HIV-1 strain 89.6; for percentage compared to wild-type CCR5, ADA: HIV-1 strain ADA; for percentage compared to wild-type CCR5, DH123: HIV-1 strain DH123; for percentage compared to wild-type CCR5, JF-RL: HIV-1 strain JF-RL; for percentage compared to wild-type CCR5, YU2: HIV-1 strain YU2
HIV-1LAI envelope gp120 = HIV-1LAI envelope gp120 (Human immunodeficiency virus type 1 group M subtype B, UniProt P03377); type: binding
[2] = Panel D, 9-mers and 12-mers of CD4, empty control […]
[3] = Panel B, 15-mers and 18-mers of CD4, empty control 575
[4] = Panel E, 9-mers and 12-mers of CD4, empty control 571
[5] = Panel C, 15-mers and 18-mers of CD4, empty control 556
[6] = CXCR4 18-mer scan, background subtracted, empty control 0
[7] = CXCR4 18-mer scan, empty control 412

For “MDYAVSSPIYDINYYTSE: CCR5 (1-18) variant Q4A”, the “percentage compared to wild-type CCR5, 89.6” value (shortened to “percentage … 89.6”) [1] is given as 67%, the “percentage compared to wild-type CCR5, ADA” value (from here on “percentage … ADA”) [1] is given as 132% and the “percentage compared to wild-type CCR5, DH123” value (“percentage … DH123” for short) [1] is given as 105%. For the same substance, the “percentage compared to wild-type CCR5, JF-RL” value (shortened to “percentage … JF-RL”) [1] was 111% and the “percentage compared to wild-type CCR5, YU2” value (“percentage … YU2” below) [1] was 85%.

In the case of “MDYQVSSPIADINYYTSE: CCR5 (1-18) variant Y10A”, the “percentage … 89.6” value [1] is listed as 10%, the “percentage … ADA” value [1] is listed as 50% and the “percentage … DH123” value [1] is listed as 3%. For the same substance, the “percentage … JF-RL” value [1] was 26% and the “percentage … YU2” value [1] was 2%.

For “MDYQVSSPIYAINYYTSE: CCR5 (1-18) variant D11A”, the “percentage … 89.6” value [1] is listed as 6%, the “percentage … ADA” value [1] is listed as 27% and the “percentage … DH123” value [1] is listed as 3%. For the same substance, the “percentage … JF-RL” value [1] was 22% and the “percentage … YU2” value [1] was 2%.

In the case of “MDYQVSSPIYDINAYTSE: CCR5 (1-18) variant Y14A”, the “percentage … 89.6” value [1] is given as 6%, the “percentage … ADA” value [1] is given as 47% and the “percentage … DH123” value [1] is given as 0%. For the same substance, the “percentage … JF-RL” value [1] was 25% and the “percentage … YU2” value [1] was 12%.

In the case of “MDYQVSSPIYDINYATSE: CCR5 (1-18) variant Y15A”, the “percentage … 89.6” value [1] is given as 1%, the “percentage … ADA” value [1] is given as 3% and the “percentage … DH123” value [1] is given as 0%. For the same substance, the “percentage … JF-RL” value [1] was 3% and the “percentage … YU2” value [1] was 30%.

In the case of “MDYQVSSPIYDINYYTSA: CCR5 (1-18) variant E18A”, the “percentage … 89.6” value [1] is given as 3%, the “percentage … ADA” value [1] is given as 12% and the “percentage … DH123” value [1] is given as 10%. The “percentage … JF-RL” value [1] was 12% and the “percentage … YU2” value [1] was 45%.

In the case of “Y3A: human CCR5 chemokine receptor with tyrosine 3 substituted by alanine, studied by others (cited 79% value)”, the “percentage of binding of mutant polypeptide compared to wild-type polypeptide, gp120” value (HIV-1LAI envelope gp120; CCR5 alanine mutant peptide, radiolabeled HIV-1LAI gp120) is listed as 51.4%, the “ability to bind HIV-1LAI gp120 envelope protein in comparison to an equivalent wild-type peptide” value (HIV-1LAI envelope gp120; CCR5 mutant polypeptide) is listed as 51.4% and the “percentage … ADA” value [1] is listed as 79%. For the same substance, the “percentage … DH123” value [1] was 42%, the “percentage … JF-RL” value [1] was 82% and the “affinity relative to a non-mutated CCR5 chemokine receptor” value ([1]; mutated CCR5, data extracted from the work of others) was 79%.

For YHEDYGFSSFNDSSQEEH, the “Binding Results For Window Length (counts bound-background), 9” value (HIV-1LAI envelope gp120; STRL33 amino terminus, 9-mer starting at the first residue of the printed sequence, background subtracted) was 728 counts, the “Binding Results For Window Length (counts bound-background), 12” value (HIV-1LAI envelope gp120; STRL33 amino terminus, 12-mer starting at the first residue of the printed sequence, background subtracted) was 1950 counts and the “Binding Results For Window Length (counts bound-background), 15” value (HIV-1LAI envelope gp120; STRL33 amino terminus, 15-mer starting at the first residue of the printed sequence, background subtracted) was 1357 counts. For the same substance, the “Binding Results For Window Length (counts bound-background), 18” value (HIV-1LAI envelope gp120; STRL33 amino terminus, 18-mer starting at the first residue of the printed sequence, background subtracted) was 985 counts.

In the case of YICEVEDQK, the “COUNTS of radiolabeled gp120 retained” value (HIV-1LAI envelope gp120; [2]) is reported as 728 counts.

With YICEVEDQKEEV the “COUNTS of radiolabeled gp120 retained” value (HIV-1LAI envelope gp120; [2]) was 734 counts.

In the case of YICEVEDQKEEVQLL, the “COUNTS of radiolabeled gp120 retained” value (HIV-1LAI envelope gp120; [3]) is reported as 1064 counts.

With YICEVEDQKEEVQLLVFG the “COUNTS of radiolabeled gp120 retained” value (HIV-1LAI envelope gp120; [3]) was 4611 counts.

In the case of YKKEGEQVE, the “COUNTS of radiolabeled gp120 retained” value (HIV-1LAI envelope gp120; [4]) is reported as 518 counts.

In the case of YKKEGEQVEFSF, the “COUNTS of radiolabeled gp120 retained” value (HIV-1LAI envelope gp120; [4]) is reported as 548 counts.

For YKKEGEQVEFSFPLA, the “COUNTS of radiolabeled gp120 retained” value (HIV-1LAI envelope gp120; [5]) was 687 counts.

In the case of YKKEGEQVEFSFPLAFTV, the “COUNTS of radiolabeled gp120 retained” value (HIV-1LAI envelope gp120; [5]) is reported as 4839 counts.

For YKKEGEQVEFSFPLAFTVEKL, the “COUNTS of radiolabeled gp120 retained” value (HIV-1LAI envelope gp120; Panel A, 21-mers of CD4, empty control 515 and 617) was 735 counts.

With “YQKKLRSMTDKYRLHLSV [CXCR4 segment 65-82]” the “radioactive counts recorded in twenty minutes” value (shortened to “radioactive counts recorded”) (HIV-1LAI envelope gp120; [6]) was 99 counts and the “radioactive counts recorded” value (HIV-1LAI envelope gp120; [7]) was 511 counts.

For “YSIIFLTGIVGNGLVILV [CXCR4 segment 45-62]”, the “radioactive counts recorded” value (HIV-1LAI envelope gp120; [6]) was 123 counts and the “radioactive counts recorded” value (HIV-1LAI envelope gp120; [7]) was 535 counts.

In the case of YSSVLILAFISLDRYLAI, the “radioactive counts recorded” value (HIV-1LAI envelope gp120; [6]) is reported as 157 counts and the “radioactive counts recorded” value (HIV-1LAI envelope gp120; [7]) is reported as 569 counts.

In the case of YTINFYTSMLILTCITVD, the “radioactive counts recorded” value (HIV-1LAI envelope gp120; STRL33 18-mer scan, background subtracted, first of two count columns) is reported as 351.5 counts and the “radioactive counts recorded” value (HIV-1LAI envelope gp120; STRL33 18-mer scan, background subtracted, second of two count columns) is reported as 510.5 counts.

For YVGVWIPALLLTIPDFIF, the “radioactive counts recorded” value (HIV-1LAI envelope gp120; [6]) was 124 counts and the “radioactive counts recorded” value (HIV-1LAI envelope gp120; [7]) was 536 counts.
